According to publication PMC5040960, “A single molecule assay to probe monovalent and multivalent bonds between hyaluronan and its key leukocyte receptor CD44 under force” (Scientific Reports, 2016):

Target: T1, streptavidin (SAv) (Streptomyces avidinii, UniProt P22629)
T1 construct: commercial lyophilized streptavidin (Sigma Aldrich), homotetramer, immobilised as monolayer on biotinylated OEG
Test: AFM single molecule force spectroscopy, Bell-Evans fit
Assay type: binding
Conditions: labelled compound (biotin tethered to AFM tip by PEG linker and thiol-gold bond); koff extrapolated to zero force; 10 mM HEPES pH 7.4, 150 mM NaCl, ambient temperature
From the text: AFM single molecule force spectroscopy, Bell-Evans fit on streptavidin (SAv)

T1 sequence (P22629 25-183): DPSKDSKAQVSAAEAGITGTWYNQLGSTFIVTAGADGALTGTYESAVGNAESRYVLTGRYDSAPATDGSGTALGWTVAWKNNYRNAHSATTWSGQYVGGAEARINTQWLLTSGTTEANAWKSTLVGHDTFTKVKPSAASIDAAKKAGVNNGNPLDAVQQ

With biotin the “koff” value was 1.40 ± 0.59 s⁻¹.
